“And” between values parts separate entries of the source, which are not always exact repeats. Identical values can stand only once.
Legend:
796R(10 μM) cells = test: HCV replicon 3-day assay in variant cells; type: cell-based, Hepatitis C virus
Protocol: (§1) All resistant cells were cultured at the indicated drug concentrations in the presence of 0.5 mg/ml G418 for at least 3 weeks before analysis.
(§2) The levels of HCV RNA were determined using a quantitative TAQMAN® RT-PCR (PE Applied Biosystems, Foster City, Calif.).
(§3) Drug susceptibility of the replicon-containing cells to various compounds was evaluated as described previously (Howe et al. (2004) Antimicrobial Agents Chem. 48:4813-21). Briefly, cells were treated with increasing concentrations of compounds in medium containing 2% FCS and no G418 for three days at 37° C. and 5% CO2. After incubation, total RNA from the replicon-containing cells was isolated. The levels of HCV, glyceraldehyde 3-phosphate dehydrogenase (GAPDH) and ribosomal (rRNA) RNAs were quantified using TAQMAN® (PE Applied Biosystems, Foster City, Calif.) reverse transcriptase PCR reactions. The amounts of HCV, 18S ribosomal, and GAPDH RNAs in each sample were estimated by comparing the number of cycles during the exponential phase of the PCR amplification with those in the corresponding standard curves. HCV RNA standards used for the construction of the standard curve were prepared by extracting the total RNA from the Clone A cells. The RNA sample was sent to National Genetics Institute to quantify HCV RNA. Total RNA extracted from Clone A cells was quantified by O.D.260 measurement and used for construction of the standard curves of rRNA and GAPDH. The concentrations of the compounds that inhibit 50% of the HCV RNA level (EC50) were determined using the MDL® LIFE SCIENCE WORKBENCH® (LSW) Data Analysis software (MDL Information Systems, San Leandro, Calif.) in Microsoft EXCEL®. The amounts of HCV or GAPDH RNAs in the samples were expressed as HCV RNA (copies) or GAPDH (ng), respectively, per μg of total RNA using rRNA as a marker for total RNA measurement.

796R(1 μM) cells = test: HCV replicon 3-day assay in variant cells; type: cell-based, Hepatitis C virus
Protocol: as §1, §2, §3

796R(0.1 μM) cells = test: HCV replicon 3-day assay in variant cells; type: cell-based, Hepatitis C virus
Protocol: as §1, §2, §3

[1] = molecular target: T1, HCV NS5B enzyme BB7-C316Y (Hepatitis C virus genotype 1b, UniProt Q9WMX2, C2735Y); test: NS5B polymerase biochemical assay
T1 construct: To prepare expression plasmid NS5B-BB7dCT21-His(C316Y); His (C); made in house; host or cells: E. coli
Protocol: (§4) All NS5B enzymes were expressed and purified according to the protocol for NS5B-BB7dCT21-His as described (Howe et al. (2004) Antimicrobial Agents Chem. 48:4813-21). Briefly, expression plasmids were transformed into E. coli cells and NS5B expression was initiated by the addition of isopropyl-beta-D-thiogalactopyranoside (IPTG). After 4 to 6 hours of incubation the cells were harvested and lysed. NS5B enzymes were purified by chromatography using a nickel affinity column (Talon, B D Biosciences, Clontech Laboratories, Inc., Mountain View, Calif.)) followed by a cation exchange column (Poros H S, Applied Biosystems, Foster City, Calif.).

1b, BB7-I363V replicon = test: Replicon variant 3-day assay; type: cell-based, Hepatitis C virus
Protocol: (§5) pBB7-replicon variant DNAs were linearized with Sca I, and in vitro transcription was performed using Ambion's […]® T7 High Yield Transcription kit (Austin, Tex.). Purified RNA transcripts were electroporated into Huh-7 cells in quadruplicates using a Biorad GENE PULSER® Electroporation System (Setting: 270V, 950 μF) (Hercules, Calif.). Stably transfected replicon variant cell lines were initially selected with 0.25 mg/ml G418 and stepped up to 1 mg/ml before further testing. One cell plate was stained with Crystal Violet to visualize the number of colonies and determine the colony formation efficiency. Individual cell clones from each plate were pooled and expanded for drug susceptibility testing.
(§6) The contribution of individual amino acid changes on drug resistance was assessed in replicon variants containing single amino acid mutations in NS5B in the background of the genotype 1b, BB7 adaptive replicon (Blight et al. (2000) Science 290:1972-74).
as §3

1b, BB7-C316S replicon = test: Replicon variant 3-day assay; type: cell-based, Hepatitis C virus
Protocol: as §5, §6, §3

1b, BB7-C316F replicon = test: Replicon variant 3-day assay; type: cell-based, Hepatitis C virus
Protocol: as §5, §6, §3

1b, BB7-M414V replicon = test: Replicon variant 3-day assay; type: cell-based, Hepatitis C virus
Protocol: as §5, §6, §3

[2] = molecular target: T2, HCV NS5B enzyme BB7 (C316) (Hepatitis C virus genotype 1b, UniProt Q9WMX2); test: biochemical
T2 construct: according to the protocol for NS5B-BB7dCT21-His as described; His (C); made in house; host or cells: E. coli
Protocol: as §4

[3] = system: Clone A cells (genotype 1b HCV replicon); test: Multiple treatments of Clone A cells, HCV RNA level; type: cell-based, Hepatitis C virus
Description: The amounts of HCV RNA and rRNA in cell aliquots were estimated using a quantitative duplex TAQMAN® RT-PCR. The Y-axis represents HCV copies per μg of total cellular RNA (using rRNA as a marker for quantification). Each data point represents an average value from three replicates.
As a control, Clone A cells were passaged in parallel in the same medium containing 0.5% DMSO without compound. […] An aliquot of the cells from each passage was collected to monitor the HCV RNA levels.

[4] = system: recombinant genotype 1b HCV NS5B enzyme variants; test: NS5B polymerase biochemical assay, several enzymes taken together; parameters: species or system Hepatitis C virus genotype 1b
Protocol: as §4

SMILES: CNC(=O)c1c(-c2ccc(F)cc2)oc2cc(N(CCO)S(C)(=O)=O)c(C3CC3)cc12 [HCV-796, 5-cyclopropyl-2-(4-fluorophenyl)-6-[(2-hydroxyethyl)(methylsulfonyl)amino]-N-methyl-1-benzofuran-3-carboxamide]
- Fold Reduced Susceptibility (796R(10 μM) cells; 796R(10 μM) cells vs Clone A control): 6812 fold and >6812 fold
- Mean log10 Viral Reduction (796R(10 μM) cells; 796R(10 μM) cells, 56 μM compound, 3-day assay): 0.5 log10 and 0.5 ± 0.3 (56 μM) log10
- EC50 (796R(10 μM) cells; Hepatitis C virus, 796R(10 μM) cells, HCV RNA, 72 hours): > 88 µM
- Fold Reduced Susceptibility (796R(1 μM) cells; 796R(1 μM) cells vs Clone A control): 618 fold
- Mean log10 Viral Reduction (796R(1 μM) cells; 796R(1 μM) cells, 56 μM compound, 3-day assay): 0.7 log10 and 0.7 ± 0.2 (56 μM) log10
- EC50 (796R(1 μM) cells; Hepatitis C virus, 796R(1 μM) cells, HCV RNA, 72 hours): 8 ± 5.2 µM
- Fold Reduced Susceptibility (796R(0.1 μM) cells; 796R(0.1 μM) cells vs Clone A control): 23 fold
- Mean log10 Viral Reduction (796R(0.1 μM) cells; 796R(0.1 μM) cells, 56 μM compound, 3-day assay): 1.4 log10 and 1.4 ± 0.3 (56 μM) log10
- EC50 (796R(0.1 μM) cells; Hepatitis C virus, 796R(0.1 μM) cells, HCV RNA, 72 hours): 0.3 ± 0.2 µM
- IC50 [1]: 320 ± 10 nM
- Fold Resistance (1b, BB7-I363V replicon; BB7-I363V vs 1b, BB7): 5 fold
- Viral Load Reduction (1b, BB7-I363V replicon; BB7-I363V, 2240 nM HCV-796, 3-day assay): 1.4 ± 0.1 log
- EC50 (1b, BB7-I363V replicon; Hepatitis C virus, 72 h, BB7-I363V, 3-day assay, read-out: HCV RNA EC50 (nM) ± SD): 16 ± 5 nM
- Fold Resistance (1b, BB7-C316S replicon; BB7-C316S vs 1b, BB7): 10 fold
- Viral Load Reduction (1b, BB7-C316S replicon; BB7-C316S, 2240 nM HCV-796, 3-day assay): 1.3 ± 0.1 log
- EC50 (1b, BB7-C316S replicon; Hepatitis C virus, 72 h, BB7-C316S, 3-day assay, read-out: HCV RNA EC50 (nM) ± SD): 30 nM
- Fold Resistance (1b, BB7-C316F replicon; BB7-C316F vs 1b, BB7): 130 fold
- Viral Load Reduction (1b, BB7-C316F replicon; BB7-C316F, 2240 nM HCV-796, 3-day assay): 0.8 ± 0.5 log
- EC50 (1b, BB7-C316F replicon; Hepatitis C virus, 72 h, BB7-C316F, 3-day assay, read-out: HCV RNA EC50 (nM) ± SD): 392 nM
- Fold Resistance (1b, BB7-M414V replicon; BB7-M414V vs 1b, BB7): 3 fold
- Viral Load Reduction (1b, BB7-M414V replicon; BB7-M414V, 2240 nM HCV-796, 3-day assay): 1.5 ± 0.1 log
- EC50 (1b, BB7-M414V replicon; Hepatitis C virus, 72 h, BB7-M414V, 3-day assay, read-out: HCV RNA EC50 (nM) ± SD): 8 ± 1 nM
- IC50 [2]: 40 nM
- decrease in the HCV RNA levels ([3]; 0.1 μM HCV-796, end of 16-day treatment): about 3.6 log10
- decrease in the HCV RNA levels ([3]; 1 μM HCV-796, end of 16-day treatment): ~4.2 log10
- reduction of HCV RNA levels ([3]; hepatoma cells containing a subgenomic genotype 1b HCV replicon): 3-4 log10 HCV copies/μg total RNA
- difference in drug susceptibility (in words) ([4]; M414V/I and I363V enzyme variants vs wild type enzyme): no appreciable difference in drug susceptibility
- susceptibility of Asn316 enzymes compared with Cys316 enzymes (in words) ([4]; NS5B enzymes of genotype 1b isolates BK and J4, data not shown): less susceptible
